Values quoted from earlier work in patent publication US20250170078A1, “STABLE PHARMACEUTICAL COMPOSITIONS OF HYDROXYUREA” (Slayback Pharma LLC., priority 2022, published 2025).

Legend:
[1] = oral
[2] = not given; remark: listed apart in the source
[3] = on its own
[4] = patients, dose escalation based on blood counts

In the case of NC(=O)NO [Hydroxyurea], the solubility in water is listed as “freely soluble”, the “absorption from the gastrointestinal tract” value [1] is listed as “almost completely absorbed” and the “stability in aqueous solutions” value [2] is listed as “poor stability”. For the same molecule, the antimicrobial activity [3] was “high level of antimicrobial activity” and the maximum tolerable dose [4] was 35 mg/kg/day.
